The values that follow are results of earlier work, collected in US20050175959A1, “System for the controlled delivery of an active material to a dental site” (Coll Partners Ltd., priority 2000, published 2005).

The conditions of this series: in vivo.

As for `F` [fluoride], the “acute lethal dose of fluoride (F)” value was 33 mg F/Kg body weight and the chronic toxicity is 0.1 mg F/Kg.
